Assay results as given in article PMC4447944 (The Journal of Biological Chemistry, 2015).

Experiments:
hEGFR(E746-A750del) = biological target: T1, hEGFR(E746-A750del) (Homo sapiens, UniProt P00533, DEL746-750); assay: KINOMEscan; type: binding
T1 construct: purchased DiscoverX

hEPHA8 = biological target: T2, hEPHA8 (Homo sapiens, UniProt P29322); assay: KINOMEscan; type: binding
T2 construct: purchased DiscoverX

hWEE2 = biological target: T3, hWEE2 (Homo sapiens, UniProt P0C1S8); assay: KINOMEscan; type: binding
T3 construct: purchased DiscoverX

hM3 = hM3 (Homo sapiens, UniProt P20309); assay: β-arrestin Antagonist (Eurofins-CEREP); conditions: read-out: % Effect, Inhibition
hTTK = biological target: T4, hTTK (Homo sapiens, UniProt P33981); assay: KINOMEscan; type: binding
T4 construct: purchased DiscoverX

hFLT3(D835H) = biological target: T5, hFLT3(D835H) (Homo sapiens, UniProt P36888, D835H); assay: KINOMEscan; type: binding
T5 construct: purchased DiscoverX

hIKK-epsilon = biological target: T6, hIKK-epsilon (Homo sapiens, UniProt Q14164); assay: KINOMEscan; type: binding
T6 construct: purchased DiscoverX (KINOMEscan panel)

hTRKB = biological target: T7, hTRKB (Homo sapiens, UniProt Q16620); assay: KINOMEscan; type: binding
T7 construct: purchased DiscoverX

hH1 = hH1 (Homo sapiens, UniProt P35367); assay: β-arrestin Antagonist (Eurofins-CEREP); conditions: read-out: % Effect, Inhibition
hCSNK2A1 = biological target: T8, hCSNK2A1 (Homo sapiens, UniProt P68400); assay: KINOMEscan; type: binding
T8 construct: purchased DiscoverX (KINOMEscan platform)

hRIPK5 = biological target: T9, hRIPK5 (Homo sapiens, UniProt Q6XUX3); assay: KINOMEscan; type: binding
T9 construct: purchased DiscoverX (KINOMEscan platform)

hTRα1 = biological target: T10, hTRα1 (Homo sapiens, UniProt P10827); assay: Nuclear hormone receptor assay (Eurofins-CEREP); conditions: read-out: Relative IC50
T10 construct: Eurofins-CEREP

hSTK36 = biological target: T11, hSTK36 (Homo sapiens, UniProt Q9NRP7); assay: KINOMEscan; type: binding
T11 construct: purchased DiscoverX (KINOMEscan platform)

hDRAK1 = biological target: T12, hDRAK1 (Homo sapiens, UniProt Q9UEE5); assay: KINOMEscan; type: binding
T12 construct: purchased DiscoverX

hEGFR(S752-I759del) = biological target: T13, hEGFR(S752-I759del) (Homo sapiens, UniProt P00533, DEL752-759); assay: KINOMEscan; type: binding
T13 construct: purchased DiscoverX

hRSK4(Kin.Dom.1-N-term) = biological target: T14, hRSK4(Kin.Dom.1-N-term) (Homo sapiens, UniProt Q9UK32); assay: KINOMEscan; type: binding
T14 construct: hRSK4(Kin.Dom.1-N-term); purchased DiscoverX (KINOMEscan platform)

hABL1-p = biological target: T15, hABL1-p (Homo sapiens, UniProt P00519); assay: KINOMEscan; type: binding
T15 construct: purchased DiscoverX (KINOMEscan platform)

hDCAMKL3 = biological target: T16, hDCAMKL3 (Homo sapiens, UniProt Q9C098); assay: KINOMEscan; type: binding
T16 construct: purchased DiscoverX (KINOMEscan platform)

hSGK3 = biological target: T17, hSGK3 (Homo sapiens, UniProt Q96BR1); assay: KINOMEscan; type: binding
T17 construct: purchased DiscoverX (KINOMEscan platform)

hD1 = hD1 (Homo sapiens, UniProt P21728); assay: β-arrestin Antagonist (Eurofins-CEREP); conditions: read-out: % Effect, Inhibition
hABL1(pF317I) = biological target: T18, hABL1(pF317I) (Homo sapiens, UniProt P00519, F317I); assay: KINOMEscan; type: binding
T18 construct: purchased DiscoverX (KINOMEscan platform)

hFLT3(K663Q) = biological target: T19, hFLT3(K663Q) (Homo sapiens, UniProt P36888, K663Q); assay: KINOMEscan; type: binding
T19 construct: purchased DiscoverX

hARK5 = biological target: T20, hARK5 (Homo sapiens, UniProt O60285); assay: KINOMEscan; type: binding
T20 construct: purchased DiscoverX

hTNNI3K = biological target: T21, hTNNI3K (Homo sapiens, UniProt Q59H18); assay: KINOMEscan; type: binding
T21 construct: purchased DiscoverX

hLRRK2(G2019S) = biological target: T22, hLRRK2(G2019S) (Homo sapiens, UniProt Q5S007, G2019S); assay: KINOMEscan; type: binding
T22 construct: purchased DiscoverX (KINOMEscan platform)

hFGFR4 = biological target: T23, hFGFR4 (Homo sapiens, UniProt P22455); assay: KINOMEscan; type: binding
T23 construct: purchased DiscoverX

hRSK1(Kin.Dom.1-N-term) = biological target: T24, hRSK1(Kin.Dom.1-N-term) (Homo sapiens, UniProt Q15418); assay: KINOMEscan; type: binding
T24 construct: hRSK1(Kin.Dom.1-N-term); purchased DiscoverX (KINOMEscan platform)

hEPHA6 = biological target: T25, hEPHA6 (Homo sapiens, UniProt Q9UF33); assay: KINOMEscan; type: binding
T25 construct: purchased DiscoverX

[1] = system: SMYD2-mediated methylation of p53 Lys370; assay: Western blot for p53 Lys370me1, HEK293 cells co-transfected with FLAG-SMYD2 and FLAG-p53; type: cell-based; conditions: Homo sapiens, 0–2.5 μM, 28 h, read-out: IC50, decrease in p53 Lys370me1
Procedure: Cell lysates were subject to 10% SDS-PAGE and transferred to a PVDF membrane. Each membrane was blocked in Odyssey Blocking Buffer (LI-COR Biosciences) and incubated with monoclonal anti-p53 (D01) antibody (Abcam, ab1101) or rabbit anti-p53 Lys^370me1 antibody (a kind gift from Dr. Shelley Berger) followed by detection with IRDye®680RD goat anti-mouse IgG (LI-COR Biosciences) and IRDye800CW goat anti-rabbit IgG (LI-COR Biosciences) on the Odyssey Imager (LI-COR Biosciences). […] 4–8 h later, cells were treated with 0–25 μM compound for 15 h. […] 24 h later, cells were lysed with 200 μl of MSD Tris Lysis Buffer^TM (Meso Scale Discovery). A MULTI-ARRAY^TM 96-well plate (Meso Scale Discovery, catalog number L15XA-3) was precoated with 2 μg/ml custom-made methyl-p53 antibody (Lampire) in PBS overnight at 4 °C. 150 μl/well MSD Blocking Solution A^TM (final concentration of 3%) was added followed by shaking at room temperature for 1 h. The plate was washed three times with 1× MSD Tris Wash Buffer^TM (Meso Scale Discovery). 0.5 μg of cell lysate in 25 μl/well MSD Tris Lysis Buffer was added, followed by shaking overnight at 4 °C. […] Following a final wash three times with 1× MSD Tris Wash Buffer, 150 μl/well 1× MSD Read Buffer^TM (Meso Scale Discovery) was added, and plates were read on an MSD SECTOR^TM Imager 6000 instrument (Meso Scale Discovery).

T7 sequence (Q16620 32-822): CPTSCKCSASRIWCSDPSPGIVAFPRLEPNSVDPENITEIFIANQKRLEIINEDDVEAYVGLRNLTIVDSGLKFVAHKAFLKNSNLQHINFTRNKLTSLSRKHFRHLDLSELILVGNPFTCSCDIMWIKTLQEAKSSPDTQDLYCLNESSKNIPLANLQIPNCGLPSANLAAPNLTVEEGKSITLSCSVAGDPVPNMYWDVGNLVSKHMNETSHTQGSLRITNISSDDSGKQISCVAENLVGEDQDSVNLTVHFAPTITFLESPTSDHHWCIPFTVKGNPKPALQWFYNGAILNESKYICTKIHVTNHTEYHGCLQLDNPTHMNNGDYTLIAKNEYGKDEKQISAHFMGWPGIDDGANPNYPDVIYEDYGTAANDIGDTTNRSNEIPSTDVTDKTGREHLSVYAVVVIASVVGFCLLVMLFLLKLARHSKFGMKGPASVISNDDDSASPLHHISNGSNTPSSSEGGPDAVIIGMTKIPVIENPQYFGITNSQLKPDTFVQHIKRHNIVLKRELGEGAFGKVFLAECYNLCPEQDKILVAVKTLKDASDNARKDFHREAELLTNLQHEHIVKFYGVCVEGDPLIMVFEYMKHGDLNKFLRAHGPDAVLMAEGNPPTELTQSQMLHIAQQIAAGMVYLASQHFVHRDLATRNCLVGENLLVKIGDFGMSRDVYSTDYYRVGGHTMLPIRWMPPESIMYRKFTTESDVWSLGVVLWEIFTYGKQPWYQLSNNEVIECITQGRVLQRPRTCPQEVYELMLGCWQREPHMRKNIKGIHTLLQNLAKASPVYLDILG
T15 sequence (P00519 whole entry): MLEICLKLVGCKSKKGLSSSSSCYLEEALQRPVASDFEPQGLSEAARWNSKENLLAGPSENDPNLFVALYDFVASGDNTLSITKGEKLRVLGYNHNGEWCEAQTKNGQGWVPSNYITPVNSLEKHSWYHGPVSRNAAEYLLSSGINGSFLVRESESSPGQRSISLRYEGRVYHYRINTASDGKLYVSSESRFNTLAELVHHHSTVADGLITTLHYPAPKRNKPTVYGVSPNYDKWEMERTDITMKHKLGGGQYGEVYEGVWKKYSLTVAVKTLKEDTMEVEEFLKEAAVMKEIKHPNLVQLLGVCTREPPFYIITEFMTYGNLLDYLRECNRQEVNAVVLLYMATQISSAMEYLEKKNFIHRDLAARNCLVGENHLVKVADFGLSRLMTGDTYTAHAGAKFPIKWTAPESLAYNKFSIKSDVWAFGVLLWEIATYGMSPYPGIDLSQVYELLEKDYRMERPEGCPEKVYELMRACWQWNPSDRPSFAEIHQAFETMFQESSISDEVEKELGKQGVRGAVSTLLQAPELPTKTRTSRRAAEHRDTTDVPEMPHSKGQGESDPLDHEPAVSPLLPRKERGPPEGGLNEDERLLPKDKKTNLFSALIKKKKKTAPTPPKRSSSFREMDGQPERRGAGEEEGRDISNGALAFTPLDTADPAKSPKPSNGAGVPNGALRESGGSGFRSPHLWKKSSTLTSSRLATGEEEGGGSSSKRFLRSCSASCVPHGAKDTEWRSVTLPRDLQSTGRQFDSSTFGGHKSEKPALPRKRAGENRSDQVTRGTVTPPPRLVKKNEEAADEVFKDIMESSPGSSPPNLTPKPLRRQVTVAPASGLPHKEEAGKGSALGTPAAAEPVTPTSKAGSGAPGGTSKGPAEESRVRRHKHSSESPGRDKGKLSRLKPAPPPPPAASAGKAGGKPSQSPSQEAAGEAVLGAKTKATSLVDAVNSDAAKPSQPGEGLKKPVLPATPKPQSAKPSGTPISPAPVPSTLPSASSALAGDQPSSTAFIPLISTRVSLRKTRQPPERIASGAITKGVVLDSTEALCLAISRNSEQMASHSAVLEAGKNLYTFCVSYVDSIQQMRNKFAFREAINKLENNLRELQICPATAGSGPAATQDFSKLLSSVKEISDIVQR
T18 sequence (P00519 whole entry F317I): as the sequence (P00519 whole entry) above, with F317I counted along it
Chain of hH1 (P35367 whole entry): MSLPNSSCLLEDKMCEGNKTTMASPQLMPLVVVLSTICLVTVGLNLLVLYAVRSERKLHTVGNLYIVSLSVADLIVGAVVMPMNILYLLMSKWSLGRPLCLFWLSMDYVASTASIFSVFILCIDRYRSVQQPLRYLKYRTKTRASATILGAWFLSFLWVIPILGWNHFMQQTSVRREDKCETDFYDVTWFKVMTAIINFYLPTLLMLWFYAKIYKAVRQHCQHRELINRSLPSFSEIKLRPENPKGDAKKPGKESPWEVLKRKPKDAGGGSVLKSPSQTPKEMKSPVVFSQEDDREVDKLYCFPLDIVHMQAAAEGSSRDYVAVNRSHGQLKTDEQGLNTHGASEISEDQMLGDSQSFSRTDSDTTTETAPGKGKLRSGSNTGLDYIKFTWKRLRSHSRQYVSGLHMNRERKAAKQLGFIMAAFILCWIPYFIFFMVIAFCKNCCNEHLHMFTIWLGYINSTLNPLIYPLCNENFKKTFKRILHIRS
T1 sequence (P00533 with tags, fused parts or gaps DEL746-750): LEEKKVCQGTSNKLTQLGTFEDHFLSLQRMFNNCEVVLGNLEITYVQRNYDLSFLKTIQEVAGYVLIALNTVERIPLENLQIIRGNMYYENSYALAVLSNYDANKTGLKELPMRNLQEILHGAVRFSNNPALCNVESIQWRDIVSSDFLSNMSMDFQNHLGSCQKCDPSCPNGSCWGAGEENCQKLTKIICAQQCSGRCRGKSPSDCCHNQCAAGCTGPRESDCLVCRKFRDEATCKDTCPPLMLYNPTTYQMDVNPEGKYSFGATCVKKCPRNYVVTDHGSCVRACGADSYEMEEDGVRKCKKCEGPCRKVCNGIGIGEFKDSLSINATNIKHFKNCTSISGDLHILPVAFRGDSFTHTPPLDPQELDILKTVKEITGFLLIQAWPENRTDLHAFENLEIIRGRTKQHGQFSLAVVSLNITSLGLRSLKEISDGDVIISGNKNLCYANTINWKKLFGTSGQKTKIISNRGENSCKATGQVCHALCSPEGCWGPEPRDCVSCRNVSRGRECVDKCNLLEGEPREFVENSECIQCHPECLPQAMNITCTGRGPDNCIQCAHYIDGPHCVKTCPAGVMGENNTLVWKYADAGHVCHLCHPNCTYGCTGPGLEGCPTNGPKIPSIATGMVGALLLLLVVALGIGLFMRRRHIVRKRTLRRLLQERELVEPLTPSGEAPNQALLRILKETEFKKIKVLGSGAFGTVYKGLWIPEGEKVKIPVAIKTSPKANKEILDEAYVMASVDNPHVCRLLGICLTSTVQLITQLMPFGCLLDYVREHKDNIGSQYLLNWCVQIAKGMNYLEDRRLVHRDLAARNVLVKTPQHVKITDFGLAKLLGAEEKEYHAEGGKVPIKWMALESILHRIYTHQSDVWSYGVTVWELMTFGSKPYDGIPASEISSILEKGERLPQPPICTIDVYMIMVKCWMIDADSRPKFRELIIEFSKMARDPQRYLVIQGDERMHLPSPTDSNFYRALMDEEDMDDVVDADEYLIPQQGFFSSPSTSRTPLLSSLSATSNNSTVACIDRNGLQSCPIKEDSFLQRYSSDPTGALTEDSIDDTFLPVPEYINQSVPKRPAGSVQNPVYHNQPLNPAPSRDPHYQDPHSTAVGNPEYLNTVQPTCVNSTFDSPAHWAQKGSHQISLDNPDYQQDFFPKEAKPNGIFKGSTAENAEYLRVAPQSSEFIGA
T17 sequence (Q96BR1 whole entry): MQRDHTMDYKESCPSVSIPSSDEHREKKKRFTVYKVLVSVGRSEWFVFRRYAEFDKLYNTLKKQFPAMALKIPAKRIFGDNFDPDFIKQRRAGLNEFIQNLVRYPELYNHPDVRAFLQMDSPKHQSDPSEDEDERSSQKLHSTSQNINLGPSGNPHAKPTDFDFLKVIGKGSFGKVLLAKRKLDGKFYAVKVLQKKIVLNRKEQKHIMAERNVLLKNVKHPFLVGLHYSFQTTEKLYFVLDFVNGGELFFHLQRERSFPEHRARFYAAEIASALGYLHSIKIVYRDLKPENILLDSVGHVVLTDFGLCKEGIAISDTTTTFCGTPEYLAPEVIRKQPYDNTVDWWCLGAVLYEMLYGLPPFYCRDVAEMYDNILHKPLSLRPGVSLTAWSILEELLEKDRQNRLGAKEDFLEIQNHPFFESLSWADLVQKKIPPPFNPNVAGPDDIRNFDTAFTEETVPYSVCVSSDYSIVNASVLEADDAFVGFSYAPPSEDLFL
T8 sequence (P68400 whole entry): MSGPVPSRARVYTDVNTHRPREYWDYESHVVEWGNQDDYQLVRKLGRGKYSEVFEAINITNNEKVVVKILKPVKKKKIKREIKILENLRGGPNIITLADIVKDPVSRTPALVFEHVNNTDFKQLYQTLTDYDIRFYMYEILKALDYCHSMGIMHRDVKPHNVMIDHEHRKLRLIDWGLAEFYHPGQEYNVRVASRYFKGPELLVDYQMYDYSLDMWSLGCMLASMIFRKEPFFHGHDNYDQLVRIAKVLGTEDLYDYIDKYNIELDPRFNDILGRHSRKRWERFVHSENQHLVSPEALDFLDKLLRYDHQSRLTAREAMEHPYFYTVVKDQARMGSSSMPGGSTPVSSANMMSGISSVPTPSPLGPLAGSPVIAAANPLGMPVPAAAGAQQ
T14 sequence (Q9UK32 73-330 limits assumed): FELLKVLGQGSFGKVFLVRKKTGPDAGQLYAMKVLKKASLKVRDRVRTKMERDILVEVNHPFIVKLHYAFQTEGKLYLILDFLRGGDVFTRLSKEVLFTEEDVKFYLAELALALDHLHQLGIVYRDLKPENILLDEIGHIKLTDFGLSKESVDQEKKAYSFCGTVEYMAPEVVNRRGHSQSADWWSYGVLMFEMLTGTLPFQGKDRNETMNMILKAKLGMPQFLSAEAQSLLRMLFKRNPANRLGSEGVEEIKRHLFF
T24 sequence (Q15418 62-321 limits assumed): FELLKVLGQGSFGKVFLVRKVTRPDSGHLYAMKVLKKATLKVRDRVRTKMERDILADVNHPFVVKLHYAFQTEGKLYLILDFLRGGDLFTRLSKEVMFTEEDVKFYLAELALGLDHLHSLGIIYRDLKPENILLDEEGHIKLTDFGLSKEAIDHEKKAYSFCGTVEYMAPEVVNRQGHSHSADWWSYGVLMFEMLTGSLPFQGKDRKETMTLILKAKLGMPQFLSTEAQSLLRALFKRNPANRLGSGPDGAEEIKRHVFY

Structure (SMILES): Cc1cn(CCN2CCN(c3ccccc3-c3cc(C#N)cc(C(=O)NCCCN4CCCC4)c3)CC2)c2ccccc12 [LLY-507, 3-cyano-5-{2-[4-[2-(3-methylindol-1-yl)ethyl]piperazin-1-yl]-phenyl}-N-[(3-pyrrolidin-1-yl)propyl]benzamide]
- IC50 (hEGFR(E746-A750del)): > 20 µM
- IC50 (hEPHA8): > 20 µM
- IC50 (hWEE2): > 20 µM
- inhibition at 10 µM (hM3): -23.6%
- IC50 (hTTK): > 20 µM
- IC50 (hFLT3(D835H)): > 20 µM
- IC50 (hIKK-epsilon): > 20 µM
- IC50 (hTRKB): > 20 µM
- inhibition at 10 µM (hH1): 30.1%
- IC50 (hCSNK2A1): > 20 µM
- IC50 (hRIPK5): > 20 µM
- IC50 (hTRα1): > 10 µM
- IC50 (hSTK36): > 20 µM
- IC50 (hDRAK1): > 20 µM
- IC50 (hEGFR(S752-I759del)): > 20 µM
- IC50 (hRSK4(Kin.Dom.1-N-term)): > 20 µM
- IC50 (hABL1-p): > 20 µM
- IC50 (hDCAMKL3): > 20 µM
- IC50 (hSGK3): > 20 µM
- inhibition at 10 µM (hD1): 43.4%
- IC50 (hABL1(pF317I)): > 20 µM
- IC50 (hFLT3(K663Q)): > 20 µM
- IC50 (hARK5): > 20 µM
- IC50 (hTNNI3K): > 20 µM
- IC50 (hLRRK2(G2019S)): > 20 µM
- IC50 (hFGFR4): > 20 µM
- IC50 (hRSK1(Kin.Dom.1-N-term)): > 20 µM
- IC50 (hEPHA6): > 20 µM
- IC50 [1]: < 1 µM
